Test results published in patent publication US11331299B2, “Medicinal use of serrulatane diterpenes” (The University of Sydney, priority 2016, dated 2022).
Like-named read-outs stand apart in the source and are kept apart here.

Tested on: 280 human cancer cell lines
Test: OncoPanel cell proliferation assay (10-day)
Assay type: cell-based
Settings: Homo sapiens; for GI50: read-out: Cell Count GI50; for IC50: read-out: Cell Count IC50; for EC50: read-out: Cell Count EC50
[1] = SJRH30, SJRH30, Soft Tissue - Sarcoma
[2] = SJSA-1, SJSA1, Soft Tissue - Osteosarcoma
[3] = SK-LMS-1, SK-LMS-1, Soft Tissue - Sarcoma
[4] = SK-MEL3, SK-MEL-3, Skin (Melanoma)
[5] = SK-MEL-1, SK-MEL-1, Skin (Melanoma)
[6] = SK-MEL-28, SK-MEL-28, Skin (Melanoma)
[7] = SK-OV-3, SKOV3, Female GU - Ovary
[8] = SK-UT-1, SK-UT-1, Soft Tissue - Sarcoma
[9] = SW579, SW579, Endocrine - Thyroid
[10] = SW684, SW684, Soft Tissue - Sarcoma

Question: For `CC(C)=CCC[C@H](CO)[C@@H]1CC[C@@H](C)c2c1cc(C)c(O)c2O` [Compound 1, 7,8,18-trihydroxyserrulat-14-ene], which GI50 (SH-4, Skin (Melanoma)) is on record?
Answer: 1940 nM

Question: And the IC50 (SH-4, Skin (Melanoma))?
Answer: 1950 nM

Question: What about the EC50 (SHP77, SHP-77, Lung - SCLC) of the same molecule?
Answer: 890 nM

Question: And the GI50 (SHP77, SHP-77, Lung - SCLC)?
Answer: 890 nM

Question: And the IC50 (SHP77, SHP-77, Lung - SCLC)?
Answer: 900 nM

Question: What about the EC50 [1] of the same molecule?
Answer: 1420 nM

Question: What about the GI50 [1] of the same molecule?
Answer: 1410 nM

Question: What about the IC50 [1] of the same molecule?
Answer: 1420 nM

Question: What about the EC50 [2] of the same molecule?
Answer: 1410 nM

Question: And the GI50 [2]?
Answer: 1410 nM

Question: What about the IC50 [2] of the same molecule?
Answer: 1410 nM

Question: And the EC50 (SK-BR-3, SK-BR-3, Breast)?
Answer: 1790 nM

Question: What about the GI50 (SK-BR-3, SK-BR-3, Breast) of the same molecule?
Answer: 1760 nM

Question: And the IC50 (SK-BR-3, SK-BR-3, Breast)?
Answer: 1800 nM

Question: What about the EC50 [3] of the same molecule?
Answer: 1570 nM

Question: What about the GI50 [3] of the same molecule?
Answer: 1560 nM

Question: And the IC50 [3]?
Answer: 1570 nM

Question: What about the EC50 [4] of the same molecule?
Answer: 4370 nM

Question: And the GI50 [4]?
Answer: 4280 nM

Question: And the IC50 [4]?
Answer: 4380 nM

Question: What about the EC50 [5] of the same molecule?
Answer: 4290 nM

Question: And the GI50 [5]?
Answer: 4110 nM

Question: What about the IC50 [5] of the same molecule?
Answer: 4410 nM

Question: What about the EC50 [6] of the same molecule?
Answer: 1540 nM

Question: What about the GI50 [6] of the same molecule?
Answer: 1530 nM

Question: And the IC50 [6]?
Answer: 1540 nM

Question: And the EC50 (SK-MES-1, SKMES1, Lung - NSCLC)?
Answer: 1060 nM

Question: And the GI50 (SK-MES-1, SKMES1, Lung - NSCLC)?
Answer: 1060 nM

Question: And the IC50 (SK-MES-1, SKMES1, Lung - NSCLC)?
Answer: 1060 nM

Question: And the EC50 (SK-N-AS, CNS - Neuroblastoma)?
Answer: 3580 nM

Question: And the GI50 (SK-N-AS, CNS - Neuroblastoma)?
Answer: 3540 nM

Question: And the IC50 (SK-N-AS, CNS - Neuroblastoma)?
Answer: 3580 nM

Question: And the EC50 (SK-N-DZ, CNS - Neuroblastoma)?
Answer: 3160 nM

Question: What about the GI50 (SK-N-DZ, CNS - Neuroblastoma) of the same molecule?
Answer: 2940 nM

Question: What about the IC50 (SK-N-DZ, CNS - Neuroblastoma) of the same molecule?
Answer: 3160 nM

Question: And the EC50 (SK-N-FI, CNS - Neuroblastoma)?
Answer: 7310 nM

Question: And the GI50 (SK-N-FI, CNS - Neuroblastoma)?
Answer: 6320 nM

Question: What about the IC50 (SK-N-FI, CNS - Neuroblastoma) of the same molecule?
Answer: 7310 nM

Question: What about the EC50 [7] of the same molecule?
Answer: 1580 nM

Question: And the GI50 [7]?
Answer: 1560 nM

Question: What about the IC50 [7] of the same molecule?
Answer: 1580 nM

Question: And the EC50 (SK-PN-DW, Stomach)?
Answer: 4660 nM

Question: What about the GI50 (SK-PN-DW, Stomach) of the same molecule?
Answer: 4630 nM

Question: What about the IC50 (SK-PN-DW, Stomach) of the same molecule?
Answer: 4660 nM

Question: And the EC50 [8]?
Answer: 2230 nM

Question: And the GI50 [8]?
Answer: 2220 nM

Question: And the IC50 [8]?
Answer: 2230 nM

Question: And the EC50 (SKO-007, SKO-007, Myeloma)?
Answer: 990 nM

Question: What about the GI50 (SKO-007, SKO-007, Myeloma) of the same molecule?
Answer: 930 nM

Question: What about the IC50 (SKO-007, SKO-007, Myeloma) of the same molecule?
Answer: 990 nM

Question: And the EC50 (SNB-19, SNB-19, CNS - Glioma)?
Answer: 1660 nM

Question: What about the GI50 (SNB-19, SNB-19, CNS - Glioma) of the same molecule?
Answer: 1650 nM

Question: And the IC50 (SNB-19, SNB-19, CNS - Glioma)?
Answer: 1660 nM

Question: And the EC50 (SNU1, SNU-1, Stomach)?
Answer: 1250 nM

Question: What about the GI50 (SNU1, SNU-1, Stomach) of the same molecule?
Answer: 1250 nM

Question: And the IC50 (SNU1, SNU-1, Stomach)?
Answer: 1250 nM

Question: And the EC50 (SNU-5, SNU-5, Stomach)?
Answer: 3920 nM

Question: What about the GI50 (SNU-5, SNU-5, Stomach) of the same molecule?
Answer: 3870 nM

Question: And the IC50 (SNU-5, SNU-5, Stomach)?
Answer: 3920 nM

Question: And the EC50 (SNU-16, SNU-16, Stomach)?
Answer: 1310 nM

Question: What about the GI50 (SNU-16, SNU-16, Stomach) of the same molecule?
Answer: 1310 nM

Question: And the IC50 (SNU-16, SNU-16, Stomach)?
Answer: 1310 nM

Question: And the EC50 (SNU-423, SNU-423, Liver)?
Answer: 1480 nM

Question: And the GI50 (SNU-423, SNU-423, Liver)?
Answer: 1460 nM

Question: What about the IC50 (SNU-423, SNU-423, Liver) of the same molecule?
Answer: 1490 nM

Question: What about the EC50 (SR, Lymphoma) of the same molecule?
Answer: 3800 nM

Question: What about the GI50 (SR, Lymphoma) of the same molecule?
Answer: 3800 nM

Question: And the IC50 (SR, Lymphoma)?
Answer: 3800 nM

Question: And the EC50 (ST486, ST486, Lymphoma)?
Answer: 1090 nM

Question: And the GI50 (ST486, ST486, Lymphoma)?
Answer: 1080 nM

Question: What about the IC50 (ST486, ST486, Lymphoma) of the same molecule?
Answer: 1090 nM

Question: What about the EC50 (SU-DHL10, SU-DHL-10, Lymphoma) of the same molecule?
Answer: 3940 nM

Question: What about the GI50 (SU-DHL10, SU-DHL-10, Lymphoma) of the same molecule?
Answer: 3930 nM

Question: And the IC50 (SU-DHL10, SU-DHL-10, Lymphoma)?
Answer: 3940 nM

Question: What about the EC50 (SU-DHL-4, SU-DHL-4, Lymphoma) of the same molecule?
Answer: 2010 nM

Question: What about the GI50 (SU-DHL-4, SU-DHL-4, Lymphoma) of the same molecule?
Answer: 2010 nM

Question: What about the IC50 (SU-DHL-4, SU-DHL-4, Lymphoma) of the same molecule?
Answer: 2010 nM

Question: And the EC50 (SU-DHL-5, SU-DHL-5, Lymphoma)?
Answer: 1200 nM

Question: And the GI50 (SU-DHL-5, SU-DHL-5, Lymphoma)?
Answer: 1190 nM

Question: And the IC50 (SU-DHL-5, SU-DHL-5, Lymphoma)?
Answer: 1200 nM

Question: What about the EC50 (SU-DHL-8, SU-DHL-8, Lymphoma) of the same molecule?
Answer: 1770 nM

Question: And the GI50 (SU-DHL-8, SU-DHL-8, Lymphoma)?
Answer: 1770 nM

Question: And the IC50 (SU-DHL-8, SU-DHL-8, Lymphoma)?
Answer: 1770 nM

Question: And the EC50 (SU.86.86, SU.86.86, Pancreas)?
Answer: 7610 nM

Question: And the GI50 (SU.86.86, SU.86.86, Pancreas)?
Answer: 7580 nM

Question: What about the IC50 (SU.86.86, SU.86.86, Pancreas) of the same molecule?
Answer: 7630 nM

Question: And the EC50 (SUP-T1, SUP-T1, Lymphoma)?
Answer: 3960 nM

Question: What about the GI50 (SUP-T1, SUP-T1, Lymphoma) of the same molecule?
Answer: 3950 nM

Question: And the IC50 (SUP-T1, SUP-T1, Lymphoma)?
Answer: 3960 nM

Question: What about the EC50 (SW48, SW48, Colon) of the same molecule?
Answer: 1330 nM

Question: What about the GI50 (SW48, SW48, Colon) of the same molecule?
Answer: 1320 nM

Question: What about the IC50 (SW48, SW48, Colon) of the same molecule?
Answer: 1330 nM

Question: What about the EC50 [9] of the same molecule?
Answer: 1710 nM

Question: And the GI50 [9]?
Answer: 1690 nM

Question: And the IC50 [9]?
Answer: 1710 nM

Question: What about the EC50 [10] of the same molecule?
Answer: 9370 nM

Question: What about the GI50 [10] of the same molecule?
Answer: 8280 nM

Question: And the IC50 [10]?
Answer: 9370 nM

Question: What about the EC50 (SW837, SW837, Colon) of the same molecule?
Answer: 2350 nM

Question: What about the GI50 (SW837, SW837, Colon) of the same molecule?
Answer: 2330 nM

Question: What about the IC50 (SW837, SW837, Colon) of the same molecule?
Answer: 2370 nM
